Test results as given in ChEMBL document CHEMBL1156582, “Synthesis and structure-activity relationships of selective norepinephrine reuptake inhibitors (sNRI) with a heterocyclic ring constraint” (Bioorg Med Chem Lett, 2008).
pIC50: −log10 of the molar value.

Experiments:
Type in all cases: cell-based, HEK293
[1] = target: Sodium-dependent noradrenaline transporter (Homo sapiens, UniProt P23975); test: Inhibition of norepinephrine uptake at human NET expressed in HEK cells
[2] = target: Sodium-dependent serotonin transporter (Homo sapiens, UniProt P31645);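 note: test system: HEK cells expressing the human transporter, read-out is block of serotonin uptake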
Chain of Sodium-dependent serotonin transporter (P31645 whole entry): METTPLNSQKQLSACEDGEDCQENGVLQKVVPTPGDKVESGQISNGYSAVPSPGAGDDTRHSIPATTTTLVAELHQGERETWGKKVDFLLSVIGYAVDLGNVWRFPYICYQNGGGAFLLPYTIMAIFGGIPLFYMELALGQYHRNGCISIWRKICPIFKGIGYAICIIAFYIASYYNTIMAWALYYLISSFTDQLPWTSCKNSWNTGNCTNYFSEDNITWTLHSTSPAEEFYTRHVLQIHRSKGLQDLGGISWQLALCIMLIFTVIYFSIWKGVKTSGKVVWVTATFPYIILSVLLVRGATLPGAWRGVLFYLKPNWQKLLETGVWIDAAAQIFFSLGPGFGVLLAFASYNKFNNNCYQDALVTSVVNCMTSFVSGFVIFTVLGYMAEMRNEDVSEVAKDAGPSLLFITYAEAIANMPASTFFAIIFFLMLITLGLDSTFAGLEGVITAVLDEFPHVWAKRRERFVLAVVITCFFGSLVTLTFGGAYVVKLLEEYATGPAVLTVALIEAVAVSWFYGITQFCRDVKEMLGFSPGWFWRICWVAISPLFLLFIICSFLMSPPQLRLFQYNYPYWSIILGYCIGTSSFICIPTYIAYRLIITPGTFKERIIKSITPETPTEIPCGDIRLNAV

[3] = target: Sodium-dependent dopamine transporter (Homo sapiens, UniProt Q01959); test: Inhibition of dopamine uptake at human DAT expressed in HEK cells
Chain of Sodium-dependent dopamine transporter (Q01959 whole entry): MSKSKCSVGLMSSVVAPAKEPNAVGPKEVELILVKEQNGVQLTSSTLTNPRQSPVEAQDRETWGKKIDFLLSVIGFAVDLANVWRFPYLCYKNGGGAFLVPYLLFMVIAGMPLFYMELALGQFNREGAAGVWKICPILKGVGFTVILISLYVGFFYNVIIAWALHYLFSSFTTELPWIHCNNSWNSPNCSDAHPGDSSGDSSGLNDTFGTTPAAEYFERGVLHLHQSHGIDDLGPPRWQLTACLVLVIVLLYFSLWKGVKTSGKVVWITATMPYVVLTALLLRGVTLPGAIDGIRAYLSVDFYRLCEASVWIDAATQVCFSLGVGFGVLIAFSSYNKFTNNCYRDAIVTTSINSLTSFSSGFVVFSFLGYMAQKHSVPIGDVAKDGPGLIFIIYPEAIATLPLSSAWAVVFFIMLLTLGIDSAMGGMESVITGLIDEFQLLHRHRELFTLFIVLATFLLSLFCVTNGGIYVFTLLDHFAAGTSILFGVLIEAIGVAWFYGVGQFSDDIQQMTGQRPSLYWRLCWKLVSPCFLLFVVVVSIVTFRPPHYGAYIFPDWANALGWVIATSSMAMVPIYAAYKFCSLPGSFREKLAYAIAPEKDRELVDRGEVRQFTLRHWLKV

Chain of Sodium-dependent noradrenaline transporter (P23975 whole entry): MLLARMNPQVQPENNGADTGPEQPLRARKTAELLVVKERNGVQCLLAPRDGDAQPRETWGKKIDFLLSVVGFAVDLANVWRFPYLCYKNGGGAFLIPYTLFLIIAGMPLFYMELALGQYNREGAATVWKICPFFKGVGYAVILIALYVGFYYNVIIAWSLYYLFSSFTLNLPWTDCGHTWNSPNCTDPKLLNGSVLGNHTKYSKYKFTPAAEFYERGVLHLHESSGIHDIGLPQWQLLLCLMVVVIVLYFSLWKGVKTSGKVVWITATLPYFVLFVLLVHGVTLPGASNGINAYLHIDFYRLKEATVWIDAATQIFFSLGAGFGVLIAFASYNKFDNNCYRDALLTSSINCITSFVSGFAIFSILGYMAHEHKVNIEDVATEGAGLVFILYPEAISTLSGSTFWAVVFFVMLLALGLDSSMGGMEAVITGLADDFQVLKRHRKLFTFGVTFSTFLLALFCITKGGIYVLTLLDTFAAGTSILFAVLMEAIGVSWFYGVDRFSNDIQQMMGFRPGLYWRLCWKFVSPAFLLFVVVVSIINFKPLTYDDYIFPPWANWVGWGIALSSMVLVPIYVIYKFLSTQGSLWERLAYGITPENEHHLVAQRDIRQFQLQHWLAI

Row | Compound | pIC50 [1] | pIC50 [2] | pIC50 [3]
1 | Cc1ccccc1O[C@H]1c2ccccc2OC[C@H]1CN(C)C | 6.15 | 5.96 | < 5.00
2 | CNC[C@@H]1Cc2ccccc2[C@@H]1Oc1ccccc1C | 8.00 | 5.80 | 5.28
3 | CCOc1ccccc1O[C@H]1c2ccccc2CO[C@@H]1CNC | 6.62 | < 5.00 | < 5.00
4 | CNC[C@H]1OCc2ccccc2[C@@H]1Oc1ccccc1SC | 7.35 | 6.19 | 5.40
5 | CNC[C@@H]1OCc2ccccc2[C@@H]1Oc1ccccc1SC | 7.85 | 5.22 | < 5.00
6 | CN(C)C[C@@H]1Cc2ccccc2[C@@H]1Oc1ccc(C(F)(F)F)cc1 | 5.35 | 6.64 | < 5.00
7 | CNC[C@H]1Cc2ccccc2[C@@H]1Oc1ccccc1C | 7.46 | 5.82 | < 5.00
8 | CNC[C@@H]1Cc2ccccc2[C@@H]1Oc1ccc(C(F)(F)F)cc1 | 6.06 | 6.72 | < 5.00
9 | CNC[C@@H]1OCc2ccccc2[C@@H]1Oc1cccc(Cl)c1C | 8.05 | 7.00 | 5.85
10 | CNC[C@@H]1OCc2ccccc2[C@@H]1Oc1ccc(F)cc1C | 7.89 | 6.82 | < 5.00
11 | CNC[C@@H]1OCc2ccccc2[C@@H]1Oc1cc(F)ccc1C | 7.96 | 5.40 | < 5.00
12 | CNC[C@@H]1CSc2ccccc2[C@@H]1Oc1ccccc1Cl | 6.84 | 5.44 | < 5.00
13 | CNC[C@@H]1SCc2ccccc2[C@@H]1Oc1ccccc1Cl | 6.85 | 5.57 | < 5.00
14 | CCc1ccccc1O[C@H]1c2ccccc2CO[C@H]1CNC | 7.82 | 5.35 | < 5.00
15 | CNC[C@H]1CS(=O)(=O)c2ccccc2[C@@H]1Oc1ccccc1C | 5.10 | 5.00 | < 5.00
16 | Cc1ccccc1O[C@H]1c2ccccc2C[C@H]1CN(C)C | 5.30 | 5.19 | < 5.00
17 | CCc1ccccc1O[C@H]1c2ccccc2CO[C@@H]1CNC | 7.44 | 5.52 | < 5.00
18 | CNC[C@H]1CSc2ccccc2[C@@H]1Oc1ccccc1C | 6.37 | 5.51 | 5.12
19 | CNC[C@@H]1Cc2ccccc2[C@@H]1Oc1cccc2ccccc12 | 7.52 | 6.85 | 5.24
20 | CNC[C@H]1OCc2ccccc2[C@@H]1Oc1ccccc1OC | 6.32 | < 5.00 | < 5.00
21 | CNC[C@H]1Cc2ccccc2[C@@H]1Oc1cccc2ccccc12 | 6.40 | 7.05 | 5.40
22 | CNC[C@@H]1OCc2ccccc2[C@@H]1Oc1ccccc1F | 7.12 | 5.51 | < 5.00
23 | CCc1cccc(F)c1O[C@H]1c2ccccc2CO[C@H]1CNC | 8.10 | 5.85 | < 5.00
